These are literature values, as cited in US20080175903A1, “Treatment of anxiety with eszopiclone” (Sepracor Inc., priority 2006, published 2008).

This series concerns rhesus monkeys. The following applies: previously published in Rowlett et al., 2006; cited from earlier work.

`CN1C(=O)CN=C(c2ccccc2)c2cc(Cl)ccc21` [Diazepam, diazepam]: the “ED50, non-suppressed responding” value is given as 1.65 mg/kg and the “ED50, suppressed responding” value is 0.11 mg/kg.
